# Results from patent US20110053916A1 (Vertex Pharmaceuticals Incorporated, priority 2009, published 2011).
# What was measured:
# [1] = tested on: Mycobacterium tuberculosis H37Ra; assay: Mycobacterium tuberculosis growth inhibition assay (microtiter dilution, resazurin reduction); assay type: cell-based; conditions: 7H9 broth, 9 days + 24 h resazurin, lowest concentration inhibiting resazurin reduction by >70%, several symbols in a cell = repeat determinations
# Procedure: Compounds were screened for their ability to inhibit the growth of Mycobacterium tuberculosis H37Ra using a standard microtiter dilution method with reduction of the dye resazurin as an indicator of growth. The growth assay was carried out in standard Mycobacterium liquid growth medium, 7H9Broth (BD Biosciences, Franklin Lakes, N.J.) supplemented with 10% ADC enrichment (BD Biosciences, Franklin Lakes, N.J.). The medium was inoculate with ˜1×10^6 cells/milliliter of Mycobacterium tuberculosis H37Ra grown on a the surface of a growth medium solid medium (7H11 agar [BD Biosciences, Franklin Lakes, N.J.] supplemented with 10% OADC enrichment [BD Biosciences, Franklin Lakes, N.J.]).
# Two-fold serial dilutions (either 7 or 11-step series) of test compounds in DMSO were dispensed into 96-well assay plates (sterile, black sided, clear bottom wells) in a volume of 1 microliter. One microliter of DMSO was dispensed into a control well at the end of each series. One-hundred microliters of the bacterial cell suspension in growth medium was dispensed into each test well containing a DSMO solution of compound. The assay plates were covered with a fitted lid and incubated at 37° C. in a humidified chamber for 9 days. On the ninth day 30 microliters of a 0.01% solution of resazurin (Sigma Chemical Co., St. Louis, Mo.) in distilled water was added to each well and the baseline fluorescence of resazurin was determined by measuring well fluorescence at an excitation wavelength of 492 nm and an emission wavelength of 595 nm on a Spectrafluor Plus (Tecan, Durham, N.C.) instrument. The assay plates were returned to the incubation chamber for 24 hours. After 24 hours, the fluorescence of the wells (resulting from the reduction of resazurin dye) was measured at an excitation wavelength of 492 nm and an emission wavelength of 595 nm on the Spectrafluor Plus instrument. The minimum inhibitory concentration (MIC) was called as the lowest concentration of compound that inhibited the reduction of resazurin by >70%, as compared to the DMSO (untreated) control wells. MIC values are represented as the following values: • A* <1.6 μM • A 1.6 μM<12.5 μM • B** 12.5 μM-25.0 μM • B* 25.0 μM-50.0 μM • B 50.0 μM-100.0 μM • C >100.0 μM
# PknB = molecular target: T1, PknB (Mycobacterium tuberculosis, UniProt P9WI81); assay: biochemical; parameters: species or system M. tuberculosis; conditions: 3 nM PknB, 6 uM GarA, 3 μM ATP, 30 min, competitive tight-binding fit, several symbols in a cell = repeat determinations; for Ki: read-out: Ki Values
# T1 construct: made in house
# T1 sequence (P9WI81 whole entry): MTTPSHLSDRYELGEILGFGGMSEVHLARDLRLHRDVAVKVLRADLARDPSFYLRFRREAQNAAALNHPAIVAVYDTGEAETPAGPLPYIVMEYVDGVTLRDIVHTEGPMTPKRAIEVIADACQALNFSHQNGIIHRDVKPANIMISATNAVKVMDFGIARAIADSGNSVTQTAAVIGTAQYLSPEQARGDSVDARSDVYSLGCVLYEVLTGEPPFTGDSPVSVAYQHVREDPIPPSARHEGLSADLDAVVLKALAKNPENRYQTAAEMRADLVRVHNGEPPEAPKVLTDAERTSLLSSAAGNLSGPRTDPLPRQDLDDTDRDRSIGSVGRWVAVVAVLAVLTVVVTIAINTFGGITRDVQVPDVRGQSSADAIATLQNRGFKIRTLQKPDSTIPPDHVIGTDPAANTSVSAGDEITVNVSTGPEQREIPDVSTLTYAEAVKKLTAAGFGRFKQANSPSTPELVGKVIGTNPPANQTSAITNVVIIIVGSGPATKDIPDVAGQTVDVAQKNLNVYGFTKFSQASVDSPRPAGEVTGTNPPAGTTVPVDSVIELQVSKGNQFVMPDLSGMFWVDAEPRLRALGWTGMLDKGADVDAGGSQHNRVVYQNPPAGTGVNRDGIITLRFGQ
SMILES,MIC values [1],Ki (PknB) [nM],Ki Values (PknB)
"O=C(O)c1cccc(Nc2nccc(Nc3cc(C4CC4)n[nH]3)n2)c1 [Compound 63, 3-[[4-[(5-cyclopropyl-2H-pyrazol-3-yl)amino]pyrimidin-2-yl]amino]benzoic acid]",B+,> 4000,–
"CCCc1cnc(N2CCCCC2)nc1Nc1cc(C2CC2)[nH]n1 [Compound 66, N-(5-cyclopropyl-1H-pyrazol-3-yl)-2-(1-piperidyl)-5-propyl-pyrimidin-4-amine]",B+,1000 to 2000,–
"COc1cnc(N2CCN(C)CC2)nc1Nc1cc(C2CC2)[nH]n1 [Compound 67, N-(5-cyclopropyl-1H-pyrazol-3-yl)-5-methoxy-2-(4-methylpiperazin-1-yl)-pyrimidin-4-amine]",A+,10 to 50,–
"CN(C)S(=O)(=O)c1ccc(-c2ncc(Cl)c(Nc3cc(C4CC4)[nH]n3)n2)s1 [Compound 74, 5-[5-chloro-4-[(5-cyclopropyl-1H-pyrazol-3-yl)amino]-pyrimidin-2-yl]-N,N-dimethyl-thiophene-2-sulfonamide]","A, B++, C",1 to 10,–
"O=C(O)c1ccc(Nc2ncc(Cl)c(Nc3cc(C4CC4)[nH]n3)n2)cc1 [Compound 77, 4-[[5-chloro-4-[(5-cyclopropyl-1H-pyrazol-3-yl)amino]-pyrimidin-2-yl]amino]benzoic acid]","B, C",100 to 500,–
"CC(C)(C)OC(=O)NCCNS(=O)(=O)c1ccc(-c2ncc(Cl)c(Nc3cc(C4CC4)[nH]n3)n2)s1 [Compound 78, tert-Butyl 2-(5-(5-chloro-4-(5-cyclopropyl-1H-pyrazol-3-ylamino)pyrimidin-2-yl)thiophene-2-sulfonamido)ethylcarbamate]","A, B++, C, C",100 to 500,–
"CN(C)CCNS(=O)(=O)c1ccc(-c2ncc(Cl)c(Nc3cc(C4CC4)[nH]n3)n2)s1 [Compound 79, 5-[5-chloro-4-[(5-cyclopropyl-1H-pyrazol-3-yl)amino]-pyrimidin-2-yl]-N-(2-dimethylaminoethyl)thiophene-2-sulfonamide]","B+, B",10 to 50,–
"Nc1ccc(Nc2nccc(Nc3cc(C4CC4)n[nH]3)n2)cc1 [Compound 80, N-(4-aminophenyl)-N′-(5-cyclopropyl-2H-pyrazol-3-yl)-pyrimidine-2,4-diamine]","B, C",–,"A, B**"
"CC(=O)OC/C=C/c1cnc(-c2ccccc2)nc1Nc1cc(C2CC2)[nH]n1 [Compound 81, (E)-3-(4-(5-cyclopropyl-1H-pyrazol-3-ylamino)-2-phenylpyrimidin-5-yl)allyl acetate]","B++, B+",100 to 500,–
"O=S(=O)(NCCO)c1ccc(Nc2nccc(Nc3cc(C4CC4)n[nH]3)n2)cc1 [Compound 83, 4-[[4-[(5-cyclopropyl-2H-pyrazol-3-yl)amino]pyrimidin-2-yl]amino]-N-(2-hydroxyethyl)benzenesulfonamide]",B+,–,"A**, A*"
"O=S(=O)(NCCO)c1ccc(-c2ncc(Cl)c(Nc3cc(C4CC4)[nH]n3)n2)s1 [Compound 86, 5-[5-chloro-4-[(5-cyclopropyl-1H-pyrazol-3-yl)amino]-pyrimidin-2-yl]-N-(2-hydroxyethyl)thiophene-2-sulfonamide]",B++,1 to 10,–
"COCCNS(=O)(=O)c1ccc(-c2ncc(Cl)c(Nc3cc(C4CC4)[nH]n3)n2)s1 [Compound 88, 5-(5-chloro-4-(5-cyclopropyl-1H-pyrazol-3-ylamino)pyrimidin-2-yl)-N-(2-methoxyethyl)thiophene-2-sulfonamide]","B+, C",10 to 50,–
"O=S(=O)(NC1CC1)c1ccc(Nc2nccc(Nc3cc(C4CC4)n[nH]3)n2)cc1 [Compound 90, N-cyclopropyl-4-[[4-[(5-cyclopropyl-2H-pyrazol-3-yl)amino]pyrimidin-2-yl]amino]-benzenesulfonamide]",B+,10 to 50,–
"C#Cc1cnc(Nc2ccc3[nH]ncc3c2)nc1Nc1cc(C2CC2)[nH]n1 [Compound 91, N^4-(5-cyclopropyl-1H-pyrazol-3-yl)-5-ethynyl-N^2-(1H-indazol-5-yl)pyrimidine-2,4-diamine]",B+,10 to 50,–
"C#Cc1cnc(-c2ccc(C)c(C(N)=O)c2)nc1Nc1cc(C2CC2)[nH]n1 [Compound 93, 5-(4-(5-Cyclopropyl-1H-pyrazol-3-ylamino)-5-ethynylpyrimidin-2-yl)-2-methyl benzamide]","B, C",10 to 50,–
"CS(=O)(=O)c1ccc(Nc2nccc(Nc3cc(C4CC4)[nH]n3)n2)cc1 [Compound 94, N′-(5-cyclopropyl-2H-pyrazol-3-yl)-N-(4-methylsulfonylphenyl)-pyrimidine-2,4-diamine]","B++, B+",1 to 10,–
"O=S(=O)(c1ccc(-c2ncc(Cl)c(Nc3cc(C4CC4)[nH]n3)n2)s1)N1CCCC1 [Compound 98, 5-chloro-N-(5-cyclopropyl-1H-pyrazol-3-yl)-2-(5-pyrrolidin-1-ylsulfonyl-2-thienyl)-pyrimidin-4-amine]","B, C",1 to 10,–
"NS(=O)(=O)c1cccc(-c2ncc(O)c(Nc3cc(C4CC4)n[nH]3)n2)c1 [Compound 99, 3-(4-(3-cyclopropyl-1H-pyrazol-5-ylamino)-5-hydroxypyrimidin-2-yl)benzenesulfonamide]","B+, B",10 to 50,–
"CN(C)S(=O)(=O)c1ccc(Nc2nccc(Nc3cc(C4CC4)n[nH]3)n2)cc1 [Compound 103, 4-(4-(3-cyclopropyl-1H-pyrazol-5-ylamino)pyrimidin-2-ylamino)N,N-dimethylbenzenesulfonamide]","B++, B+",–,"A**, A*"
"Oc1cccc(-c2ncc(Cl)c(Nc3cc(C4CC4)[nH]n3)n2)c1 [Compound 104, 3-[5-chloro-4-[(5-cyclopropyl-1H-pyrazol-3-yl)amino]-pyrimidin-2-yl]phenol]","B++, C",–,"A*, A"
"CS(=O)(=O)Nc1ccc(-c2ncc(Cl)c(Nc3cc(C4CC4)[nH]n3)n2)cc1 [Compound 105, N-[4-[5-chloro-4-[(5-cyclopropyl-1H-pyrazol-3-yl)amino]pyrimidin-2-yl]phenyl]methanesulfonamide]",B+,10 to 50,–
"O=S(=O)(c1ccc(-c2ncc(Cl)c(Nc3cc(C4CC4)[nH]n3)n2)s1)N1CCOCC1 [Compound 106, 5-chloro-N-(5-cyclopropyl-1H-pyrazol-3-yl)-2-(5-morpholinosulfonyl-2-thienyl)-pyrimidin-4-amine]","B++, C",–,"A*, A"
"CS(=O)(=O)Nc1cccc(-c2ncc(Cl)c(Nc3cc(C4CC4)[nH]n3)n2)c1 [Compound 107, N-[3-[5-chloro-4-[(5-cyclopropyl-1H-pyrazol-3-yl)amino]pyrimidin-2-yl]phenyl]methanesulfonamide]","B++, B+",50 to 100,–
"C#Cc1cnc(-c2ccc(S(=O)(=O)NCCO)s2)nc1Nc1cc(C2CC2)[nH]n1 [Compound 108, 5-(4-(3-cyclopropyl-1H-pyrazol-5-ylamino)-5-ethynylpyrimidin-2-yl)-N-(2-hydroxyethyl)thiophene-2-sulfonamide]",B+,1 to 10,–
"C#Cc1cnc(-c2ccc(C(C)=O)s2)nc1Nc1cc(C2CC2)[nH]n1 [Compound 111, 1-(5-(4-(5-Cyclopropyl-1H-pyrazol-3-ylamino)-5-ethynylpyrimidin-2-yl)thiophen-2-yl)ethanone]","B++, B",–,"A**, A*"
"COCCNS(=O)(=O)c1ccc(Nc2nccc(Nc3cc(C4CC4)n[nH]3)n2)cc1 [Compound 112, 4-[[4-[(5-cyclopropyl-2H-pyrazol-3-yl)amino]pyrimidin-2-yl]amino]-N-(2-methoxyethyl)benzenesulfonamide]",B+,10 to 50,–
"C#Cc1cnc(-c2ccc(S(=O)(=O)NC)s2)nc1Nc1cc(C2CC2)n[nH]1 [Compound 113, 5-(4-(3-cyclopropyl-1H-pyrazol-5-ylamino)-5-ethynylpyrimidin-2-yl)-N-methylthiophene-2-sulfonamide]",B+,1 to 10,–
"C#Cc1cnc(-c2ccc(S(N)(=O)=O)s2)nc1Nc1cc(C2CC2)n[nH]1 [Compound 114, 5-(4-(3-Cyclopropyl-1H-pyrazol-5-ylamino)-5-ethynylpyrimidin-2-yl)thiophene-2-sulfonamide]","A+, A",1 to 10,–
